{
  "source": "ChEMBL document CHEMBL5518193",
  "about": "“Discovery of N-alkyl-N-benzyl thiazoles as novel TRPC antagonists for the treatment of glioblastoma multiforme” (Eur J Med Chem, 2024)",
  "key": {"[1]": {"biological_target": "T1, Short transient receptor potential channel 5 (Homo sapiens, UniProt Q9UL62)", "T1 sequence (Q9UL62 whole entry)": "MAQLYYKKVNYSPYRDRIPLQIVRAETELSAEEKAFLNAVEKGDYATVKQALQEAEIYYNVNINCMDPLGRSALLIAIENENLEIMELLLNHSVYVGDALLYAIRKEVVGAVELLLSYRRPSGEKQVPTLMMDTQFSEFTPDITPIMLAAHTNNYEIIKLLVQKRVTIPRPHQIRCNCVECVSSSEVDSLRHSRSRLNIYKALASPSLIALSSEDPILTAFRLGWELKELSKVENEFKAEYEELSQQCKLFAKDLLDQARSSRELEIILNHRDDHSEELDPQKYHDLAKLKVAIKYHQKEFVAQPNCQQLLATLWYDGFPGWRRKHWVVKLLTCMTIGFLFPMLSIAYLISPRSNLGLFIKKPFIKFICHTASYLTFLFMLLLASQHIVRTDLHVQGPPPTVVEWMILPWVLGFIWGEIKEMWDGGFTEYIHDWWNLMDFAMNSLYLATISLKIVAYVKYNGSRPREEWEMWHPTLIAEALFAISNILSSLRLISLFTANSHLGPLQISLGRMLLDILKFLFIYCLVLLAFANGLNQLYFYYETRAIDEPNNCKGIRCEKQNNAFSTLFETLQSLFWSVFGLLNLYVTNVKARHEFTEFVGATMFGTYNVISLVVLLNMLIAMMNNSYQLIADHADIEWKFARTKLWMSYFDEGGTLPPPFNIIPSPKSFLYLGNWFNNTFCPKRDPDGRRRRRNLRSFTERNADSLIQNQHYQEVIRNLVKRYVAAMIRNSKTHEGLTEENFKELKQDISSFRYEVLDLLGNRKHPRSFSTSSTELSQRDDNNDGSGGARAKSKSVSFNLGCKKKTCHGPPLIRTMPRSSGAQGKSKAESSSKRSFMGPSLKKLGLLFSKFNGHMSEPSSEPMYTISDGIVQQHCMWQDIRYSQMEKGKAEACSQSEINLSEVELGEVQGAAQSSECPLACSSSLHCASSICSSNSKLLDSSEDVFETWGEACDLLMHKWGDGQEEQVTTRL", "assay": "Antagonist activity at TRPC5 (unknown origin) assessed as inhibition of channel activity"}, "[2]": {"biological_target": "T2, Short transient receptor potential channel 6 (Homo sapiens, UniProt Q9Y210)", "T2 sequence (Q9Y210 whole entry)": "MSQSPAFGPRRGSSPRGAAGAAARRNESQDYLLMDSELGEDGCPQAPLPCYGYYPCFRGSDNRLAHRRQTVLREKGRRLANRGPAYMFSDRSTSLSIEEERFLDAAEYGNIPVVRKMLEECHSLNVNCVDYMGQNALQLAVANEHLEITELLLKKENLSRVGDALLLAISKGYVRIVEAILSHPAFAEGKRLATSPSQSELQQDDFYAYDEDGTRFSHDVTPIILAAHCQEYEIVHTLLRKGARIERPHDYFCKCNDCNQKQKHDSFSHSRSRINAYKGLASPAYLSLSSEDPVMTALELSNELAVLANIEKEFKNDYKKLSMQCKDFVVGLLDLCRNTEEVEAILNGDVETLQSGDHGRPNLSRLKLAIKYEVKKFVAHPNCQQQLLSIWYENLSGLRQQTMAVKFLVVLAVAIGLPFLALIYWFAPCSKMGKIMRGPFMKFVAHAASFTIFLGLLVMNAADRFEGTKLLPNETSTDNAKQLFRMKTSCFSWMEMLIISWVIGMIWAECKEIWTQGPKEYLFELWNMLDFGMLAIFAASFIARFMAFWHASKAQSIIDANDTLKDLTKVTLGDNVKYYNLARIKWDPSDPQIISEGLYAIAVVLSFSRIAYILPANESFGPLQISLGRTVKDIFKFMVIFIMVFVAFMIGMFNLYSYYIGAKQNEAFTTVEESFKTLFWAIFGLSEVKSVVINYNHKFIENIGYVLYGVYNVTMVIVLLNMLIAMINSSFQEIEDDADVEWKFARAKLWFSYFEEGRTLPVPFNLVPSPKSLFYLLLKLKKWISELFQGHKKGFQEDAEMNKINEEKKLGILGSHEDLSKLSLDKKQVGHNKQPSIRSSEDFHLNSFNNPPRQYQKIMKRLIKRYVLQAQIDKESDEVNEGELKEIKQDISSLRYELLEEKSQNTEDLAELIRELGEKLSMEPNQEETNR", "assay": "Antagonist activity at TRPC6 (unknown origin) assessed as inhibition of channel activity"}},
  "data": [
    {"smiles": "O=C1O/C(=C/Br)CCC1c1cccc2ccccc12", "note": "(configuration not stated) [BROMOENOL LACTONE]", "values": [
      {"measurement": "IC50", "setting": "[1]", "value": 10.6, "unit": "µM"},
      {"measurement": "IC50", "setting": "[2]", "value": 7.2, "unit": "µM"}
    ]}
  ]
}
